Measured values: paper PMC10916291, “Cocrystals of a coumarin derivative: an efficient approach towards anti-leishmanial cocrystals against MIL-resistant Leishmania tropica” (IUCrJ, 2024)
Where two headings read alike, the source gives them in different places.

Assays:
[1] = system: 3T3 (normal mouse fibroblast) cell line; experiment: in vitro
Description: (§1) In vitro biological activities of CU, coformers and synthesized cocrystals 2–6 were evaluated for their MIL-resistant L. tropica promastigotes and cytotoxicity against […]. Detailed methodologies of the biological assays are provided in the supporting information.
(§2) 2. Cytotoxicity assay Protocol:
(§3) Cy totoxicity o f compounds was evaluated in 96-well flat-bo ttomed micro plates by using the standard MTT (3-[4, 5-dimethylthiazole-2-y l]-2 , 5-d iph eny l-tetrazolium bromide) colorimetric assay. For this purpose, 3T3 (mouse fibroblast) cells were cultured in Dulb ecco’s Modified Eagle Medium, supplemented with 5% of fetal bovine serum (FBS), 100 IU/mL of penicillin and 100 µg / m L of strep tomy cin in 75 cm2 flasks, and kept in 5% CO2 incubator at 37° C.
(§4) Exponentially growing cells were harvested, counted with haemocytometer, and diluted with a particular medium. Cell culture with the concentration of 5x10^4 cells/mL was p rep ared and introduced (100 µL/well) into 96-well plates. After overnight incubation, medium was removed and 200 µL of fresh medium was added with different concentrations of compounds (1-30 µM).
(§5) After 48 hrs. 200 µL MTT (0.5 mg/mL) was added to each well, and incubated further for 4 hrs.
(§6) Subsequently, 100 µL of DMSO was added to each well. The extent of MTT reduction to formazan within cells was calculated by measuring the absorbance at 540 nm, using a micro-plate reader (Spectra Max p lus, Molecular Devices, USA). The cy totoxicity was recorded as a concentration causing 50% growth inhibition (IC50) of 3T3 cells. The percent inhibition was calculated by using the fo llo wing formula:
(§7) % Inhibition = 100-((mean of O.D of test compound – mean of O.D of negative control)/ (mean of O.D. of positive control – mean of O.D of negative control)*100).
(§8) The results (% inhibition) were processed by using Soft- Max Pro software (Molecular Devices, […]

[2] = Thermal analysis (DSC and TGA); assay type: physicochemical; conditions: heating rate 10°C min^-1, dry N2
Description: DSC and TGA were performed on a LINSEIS STA PT1600 with heating rate of 10°C min^−1. About 20–25 mg of samples were crimped in a ceramic pan and scanned from 30 to 600°C under dry N2 gas purging. The Linseis TA software (version 1.0; Linseis Messgeraete GmbH) was employed for collecting data.

[3] = system: MIL-resistant L. tropica promastigotes; experiment: microbe, parasite or virus in culture; assay type: cell-based, Leishmania tropica; conditions: for IC50: Leishmania tropica, 72 h, read-out: Anti-leishmanial activity against MIL-resistant L. tropica via MTT assay (IC50 = µM ± SEM)
Description: as §1
(§9) Biological activities evaluations
1. MIL-resistant L. tropica assay protocol
Miltefosine (hexadecylphosphocholine) (LEAP Chem), RPMI-1640 culture medium (Gibco), supplemented with 10% (v/v) heat-inactivated fetal bovine serum (FBS) (Gibco), 2 mM L-glutamine, 1% penicillin/ streptomycin (Sigma), DMSO (ALC labscan), and Trypan blue […]
Clinical Isolate and Generation of MIL resistant line:
Clinical isolate (L. tropica promastigote) from the endemic area of Islamabad (Pakistan) was ob tained from a patient. Promastigote cultures were maintained at 26 °C in RPMI medium, containing 15 % FBS and 1 % penicillin–streptomycin mixture. Clinical isolate was characterized by sequencing.
(§10) Generation of Miltefosine-unresponsive strain was carried under high MIL pressure by in vitro passage with stepwise increase in the MIL concentration. At each step, parasites were cultured, and passaged every 3–4 days at an initial concentration of 5x10^5 promastigotes/mL in order to achieve the stable growth, as compared to the wild type isolate. Growth rates were measured for resistant populations and compared with the WT strain. Parasites were counted at an initial concentration of 5 x 10^5 parasites/mL, and growth was measured daily using a Neubauer chamber until the population reached stationary phase. Fu rth ermore, the fluorescence microscopic investigations via DAPI stain were also carried out to supplement the study, and for […]
Promastigote Growth Inhibition Assay
(IC50) of resistant cell proliferation concerning untreated controls, the MTT assay was employed.
The promastigotes in their log phase were used in 96-well plates. 1 × 106 wild-type and resistant […]
promastigotes were dispensed in 96-well plates, and incubated with tested compounds at a range concentration of 200–10 μM (stock concentration 1mg/mL and the working con centrations started from 250 µg/mL) at 27°C for 72 h. After incubation of 72 h, MTT dye (3-(4,5-dimethylthiazol-2-yl)-2,5-diphenyl-2H-tetrazolium bromide) was added and further incubate it for 3–4 h. Amphotericin B, pantamidine and miltefosine were used as th e positive control, untreated promastigotes were used as negative control moreover DMSO control was also added in the study as a stock solution of the compounds that were prepared in DMSO. All the experiments were performed in triplicates. After completion of the experiment the absorbance by Multiskan ascent plate reader at 452 nm and percent inhibition was calculated by the following […]
Cytotoxic concentration (%) = [100- (Absorbance of test)/ (Absorbance of solv ent con trol) ×100]

[4] = in vitro; conditions: mouse
Description: as §1, §2, §3, §4, §5, §6, §7, §8

[5] = system: MIL-resistant L. tropica promastigotes; experiment: Growth of MIL-resistant L. tropica line generated by step-wise selection (trypan blue count); assay type: cell-based, Leishmania tropica; conditions: step-wise selection of MIL up to 196 µM, Fig. 9
Description: L. tropica MIL-unresponsive/resistant parasites were developed and maintained using a step-wise selection of the drug MIL up to a concentration of 196 µM. No significant differences in growth patterns were observed between WT- and MIL-resistant strains.
Figure 9 MIL-resistant L. tropica line generated by step-wise selection. 1 × 10^6 log-phase promastigotes were incubated in the presence of a range of drug concentrations. The surviving cells were quantified with trypan blue dye. Populations of parasites were grown in increasing concentrations of MIL, showing increased resistance to MIL. Bars of both resistant and WT parasites represent the more or less similar growth patterns.
as §9
1. MIL-resistant L. tropica assay protocol […]
as §10, with “At each step, parasites were cultured, and passaged every 3–4 days at an initial concentration of 5x10^5 promastigotes/mL in order to achieve the stable growth, as compared to the wild type isolate.” left out

## O=C(O)c1cc2ccccc2oc1=O [Cocrystal 1a, Coumarin-3-carboxylic acid]
[1]
  Cytotoxic activity 3T3 cell line (IC50 = µM ± SEM): Non-cytotoxic
[2]
  Thermal stability up to (TGA/DSC): 191.78 °C

## Nc1ncccc1Br [Cocrystal 1b, 2-amino-3-bromopyridine]
[1]
  Cytotoxic activity 3T3 cell line (IC50 = µM ± SEM): Non-cytotoxic
[2]
  Thermal stability up to (TGA/DSC): 67.29 °C

## Nc1ccc(C(F)(F)F)cn1 [Cocrystal 1c, 2-amino-5-(trifluoromethyl)-pyridine]
[1]
  Cytotoxic activity 3T3 cell line (IC50 = µM ± SEM): Non-cytotoxic
[2]
  Thermal stability up to (TGA/DSC): 48.38 °C

## Nc1ccc(C(=O)O)cc1 [Cocrystal 1e, p-aminobenzoic acid]
[1]
  Cytotoxic activity 3T3 cell line (IC50 = µM ± SEM): Non-cytotoxic

## Nc1nc[nH]n1 [Cocrystal 1f, amitrole]
[3]
  IC50: 78 ± 0.96 µM
[3]; Table S1, concentration 46.95 (unit not given)
  Percent Inhibitions: 44.0%
[3]; Table S1, concentration 93.88 (unit not given)
  Percent Inhibitions: 53.1%
[3]; Table S1, concentration 187 (unit not given)
  Percent Inhibitions: 63.01%
[1]; 3T3 normal mouse fibroblast, MTT, 48 h, 1-30 µM
  Cytotoxic activity 3T3 cell line (IC50 = µM ± SEM): Non-cytotoxic

## C[C@@H]1C[C@@H]([C@H](O)CC2CC(=O)NC(=O)C2)C(=O)[C@@H](C)C1 [cyclohexamide, reference compound]
[4]
  IC50 at 48 h: 0.8 ± 0.14 µM

## CCCCCCCCCCCCCCCCOP(=O)([O-])OCC[N+](C)(C)C [miltefosine, hexadecylphosphocholine, reference compound]
[3]
  IC50: 169.55 ± 0.078 µM
[5]
  Inhibitory effect on cell proliferation of MIL-resistant L. tropica: no inhibitory effects
